Source: publication PMC2822059 (Nature chemical biology, 2010)

Experiments:
H976Y HDAC4 = settings: mutant versus wild type; cited from earlier work
[1] = system: acetylated alpha-tubulin (AcTub), Jurkat cells; assay: Immunoblot for acetylated alpha-tubulin in treated cells; format: cell-based, human; settings: 24 hours, time- and dose-dependent
[2] = system: acetylated histones (AcH3K18), Jurkat cells; assay: Immunoblot for acetylated histones in treated cells; format: cell-based, human; settings: 24 hours, time- and dose-dependent

SMILES | increased affinity for H976Y HDAC4 gain of function mutant (H976Y HDAC4) | hyperacetylation of HDAC6 target α-tubulin [1] | hyperacetylation of Class I deacetylase targets (bulk histones) [2]
O=C(/C=C/c1ccc(CN(CCO)CCc2c[nH]c3ccccc23)cc1)NO [LAQ-824] | 100 fold |  | 
O=C(/C=C/c1ccc(C(=O)N/N=C/c2ccc(O)c(O)c2O)cc1)NO [pandacostat] |  | confers hyperacetylation | confers hyperacetylation
